Measured values from PubChem BioAssay (NCI).
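Cells were grown in 96-well plates and exposed to each compound for 48 hours at five concentrations; endpoints were interpolated linearly between bracketing concentrations, or set to the highest concentration if not reached. Definition used: TGI = concentration required for complete inhibition of growth.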

How the values were obtained:
Assay in all cases: NCI anticancer screen, dose series, 48 h
KM20L2 colon = test system: KM20L2 colon
SF-268 CNS = test system: SF-268 CNS
IGROV1 ovarian = test system: IGROV1 ovarian
SNB-75 CNS = test system: SNB-75 CNS
NCI-H522 lung = test system: NCI-H522 lung
HOP-18 NSCLC = test system: HOP-18 NSCLC
786-0 renal = test system: 786-0 renal
SNB-78 CNS = test system: SNB-78 CNS
DLD-1 colon = test system: DLD-1 colon
LXFL 529 NSCLC = test system: LXFL 529 NSCLC
COLO 205 colon = test system: COLO 205 colon
DMS 114 small cell lung = test system: DMS 114 small cell lung
M19-MEL melanoma = test system: M19-MEL melanoma
HL-60(TB) leukemia = test system: HL-60(TB) leukemia
XF 498 CNS = test system: XF 498 CNS
DMS 273 small cell lung = test system: DMS 273 small cell lung
RXF-631 renal = test system: RXF-631 renal

| SMILES | TGI (KM20L2 colon) | TGI (SF-268 CNS) | TGI (IGROV1 ovarian) | TGI (SNB-75 CNS) | TGI (NCI-H522 lung) | TGI (HOP-18 NSCLC) | TGI (786-0 renal) | TGI (SNB-78 CNS) | TGI (DLD-1 colon) | TGI (LXFL 529 NSCLC) | TGI (COLO 205 colon) | TGI (DMS 114 small cell lung) | TGI (M19-MEL melanoma) | TGI (HL-60(TB) leukemia) | TGI (XF 498 CNS) | TGI (DMS 273 small cell lung) | TGI (RXF-631 renal) |
| --- | --- | --- | --- | --- | --- | --- | --- | --- | --- | --- | --- | --- | --- | --- | --- | --- | --- |
| COc1cc2c(cc1OC)C(Cc1cc(Br)c(OC)c(OC)c1)=[N+](C)CC2 | > 100 µM | > 100 µM | > 100 µM | > 100 µM | > 100 µM | > 100 µM | > 100 µM | > 100 µM | > 100 µM | > 100 µM | > 100 µM | 57 µM | > 100 µM | > 100 µM |  |  |  |
| CN(C)CCSC(=Nc1ccccc1)n1cccc1 | > 100 µM | > 100 µM | > 100 µM | 96.4 µM | > 100 µM | > 100 µM | > 100 µM | 76.9 µM | > 100 µM | > 100 µM | > 100 µM | 80.8 µM | > 100 µM | > 100 µM | > 100 µM | > 100 µM |  |
| COc1ccc([C@H]2[C@@H]3CCc4ccccc4C3=NN2C(N)=S)cc1OC | > 100 µM | > 100 µM | > 100 µM |  | 59.7 µM | > 100 µM | > 100 µM | > 100 µM | > 100 µM | > 100 µM |  | 93.7 µM | > 100 µM | 54.8 µM | > 100 µM |  |  |
| Cc1ccc([N+](=O)[O-])cc1NC(=O)/C(CC(=O)c1sc(C(N)=S)nc1C)=N\N | > 100 µM | > 100 µM | > 100 µM | > 100 µM | 76.4 µM | > 100 µM | > 100 µM | > 100 µM | > 100 µM | > 100 µM |  | > 100 µM | > 100 µM | > 100 µM |  | > 100 µM | > 100 µM |
| CC(=O)OCc1ncccc1C(OC(C)=O)OC(C)=O | > 100 µM | > 100 µM | > 100 µM | > 100 µM | > 100 µM | > 100 µM | > 100 µM | > 100 µM | > 100 µM | > 100 µM | > 100 µM | > 100 µM | > 100 µM | > 100 µM | > 100 µM | > 100 µM |  |
| C[C@@H]1C[C@@H]2C(=O)N(c3ccccc3)C(=O)[C@@H]2c2[nH]c3ccc(Br)cc3c21 | > 100 µM | > 100 µM | > 100 µM | 41.9 µM | 78.5 µM | 62.4 µM | > 100 µM | 71 µM | > 100 µM | > 100 µM | > 100 µM | > 100 µM | > 100 µM | > 100 µM | 81.3 µM | > 100 µM | > 100 µM |
| CCOc1cc2cnc3c4cc(OC)c(OC)cc4ccc3c2cc1OC | > 100 µM | > 100 µM | > 100 µM | > 100 µM | > 100 µM | > 100 µM | > 100 µM | > 100 µM | > 100 µM | > 100 µM | > 100 µM | > 100 µM | > 100 µM | > 100 µM |  |  |  |
| CCOC(=O)/C(=C/c1ccccc1)N(CC)CC | > 100 µM | > 100 µM | > 100 µM |  | > 100 µM |  | > 100 µM | > 100 µM |  | > 100 µM | > 100 µM | > 100 µM | > 100 µM | > 100 µM | > 100 µM | > 100 µM |  |
| COc1ccc(C2S/C(=C\c3ccc([N+](=O)[O-])cc3)C(=O)N2NC(=O)Cc2ccccc2)cc1 (centres undefined) |  | > 100 µM | > 100 µM | > 100 µM | > 100 µM | > 100 µM | > 100 µM |  | > 100 µM | > 100 µM | > 100 µM | > 100 µM | > 100 µM | > 100 µM |  | > 100 µM |  |
| CC(=O)NC(CCCCN(Cc1ccccc1)C(=O)N(C)N=O)C(=O)NCc1ccccc1 (centres undefined) | > 100 µM | > 100 µM | > 100 µM | 86.9 µM | > 100 µM |  | > 100 µM | > 100 µM | > 100 µM | > 100 µM | > 100 µM | > 100 µM | > 100 µM |  | > 100 µM | > 100 µM | > 100 µM |
| CC(C)C1COC(C(C)(C)C2=N[C@@H](C(C)C)CO2)=N1 (some centres undefined) | > 100 µM | > 100 µM | > 100 µM | > 100 µM | > 100 µM | > 100 µM | > 100 µM |  | > 100 µM | > 100 µM | > 100 µM | > 100 µM | > 100 µM | > 100 µM | > 100 µM | > 100 µM | > 100 µM |
| CC1(C)OC2C(O1)[C@H]1OC(C(Cl)(Cl)Cl)=N[C@H]1C(I)[C@H]2N1C(=O)c2ccccc2C1=O (some centres undefined) | > 100 µM | > 100 µM | 61.7 µM | > 100 µM | 74.5 µM | > 100 µM | > 100 µM | > 100 µM | > 100 µM | > 100 µM | > 100 µM | > 100 µM | > 100 µM | 44.4 µM |  | > 100 µM |  |
| NC(=S)N/N=C(/CCN1CCCC1)CC(C1=C(O)C2=CCCCC2OC1=O)c1ccccc1 (centres undefined) | > 100 µM | > 100 µM | > 100 µM | > 100 µM | > 100 µM | > 100 µM | > 100 µM | > 100 µM | > 100 µM | > 100 µM | > 100 µM |  | > 100 µM | > 100 µM | > 100 µM |  |  |
| COc1cc(CO)cc2c1[nH]c1ccccc12 | > 25 µM | > 25 µM | > 25 µM |  | > 25 µM | > 25 µM | > 25 µM | > 25 µM | > 25 µM | > 25 µM | > 25 µM | > 25 µM | > 25 µM | > 25 µM | > 25 µM | > 25 µM |  |
| COC(=O)[C@H]1C2CC[C@@H]3C45C[C@@H](c6ccoc6)O[C@@H]4O[C@@H](O2)C31CCC5C (some centres undefined) | > 100 µM | > 100 µM | > 100 µM |  | > 100 µM | > 100 µM | > 100 µM | > 100 µM | > 100 µM | > 100 µM | > 100 µM |  |  | > 100 µM | > 100 µM | > 100 µM |  |
| COc1ccc(-c2n[nH]c3nc4ccccc4n3c2=O)cc1 |  | > 100 µM | > 100 µM | > 100 µM | > 100 µM |  | > 100 µM |  |  |  | > 100 µM |  |  | > 100 µM |  |  |  |
| O=c1oc2ccccc2c(O)c1Cc1ccccc1Cc1c(O)c2ccccc2oc1=O |  | > 100 µM | > 100 µM | > 100 µM | > 100 µM |  | > 100 µM |  |  |  | > 100 µM |  |  | > 100 µM |  |  |  |
| O[C@]12c3ccccc3C1CCCC2N1CCOCC1 (some centres undefined) | > 100 µM | > 100 µM |  | > 100 µM | > 100 µM | > 100 µM | > 100 µM | > 100 µM |  | > 100 µM | > 100 µM | > 100 µM | > 100 µM | > 100 µM | > 100 µM | > 100 µM |  |
| N#CC(C#N)=C(N)/C(C#N)=C/c1ccc(O)c(O)c1 | > 100 µM | > 100 µM | > 100 µM | > 100 µM | > 100 µM |  | > 100 µM | > 100 µM | > 100 µM | > 100 µM | > 100 µM | > 100 µM | > 100 µM | > 83.3 µM | > 100 µM | > 100 µM |  |
| CC(C)C(=O)/C=C/c1ccc(Cl)cc1Cl |  | 22.5 µM | 28.4 µM | 27.7 µM | 22.8 µM |  | 27.2 µM |  |  |  | 32.7 µM |  |  | > 100 µM |  |  |  |
| O=C(O)C(C(F)(F)F)C(F)(F)F (tested in a mixture with another compound) |  | > 100 µM | > 100 µM | > 100 µM | > 100 µM |  | > 100 µM |  |  |  | > 100 µM |  |  | > 100 µM |  |  |  |
| COC(=O)C(Cc1ccccc1)NP(=O)(O)OCC1OC(n2ccc(N)nc2=O)C(O)C1O (centres undefined) |  | > 100 µM | > 100 µM | > 100 µM | > 100 µM |  | > 100 µM |  |  |  | > 100 µM |  |  | > 100 µM |  |  |  |
| COc1ccccc1CC1(O)OC(=O)c2ccccc21 (centres undefined) |  | > 100 µM | > 100 µM | > 100 µM | > 100 µM |  | > 100 µM |  |  |  | > 100 µM |  |  | > 100 µM |  |  |  |
| C/C(=N\NC(N)=S)C(CN1CCCCC1)C(C1=C(O)c2ccccc2OC1)c1ccccc1 (centres undefined) |  | > 100 µM | > 100 µM | > 100 µM | > 100 µM |  | > 100 µM |  |  |  | > 100 µM |  |  | 88.4 µM |  |  |  |
| CN(C(=O)C12C3(C(=O)O)C4C5(C(=O)O)C3C1(C(=O)O)C5C42C(=O)O)C(C)(C)C (centres undefined) |  | > 100 µM | > 100 µM | > 100 µM | > 100 µM |  | > 100 µM |  |  |  | > 100 µM |  |  | > 100 µM |  |  |  |
